Measurements taken from patent US9994515B2, “Aryl naphthyl methanone oxime(s) and process for preparation thereof” (Council of Scientific & Industrial Research, priority 2013, dated 2018).
Where a name gives a salt, the structure may show the parent alone.

Legend:
[1] = test system: NIH3T3; test: MTT cytotoxicity assay in NIH3T3 fibroblasts; type: cell-based, mouse; settings: Mus musculus, NIH3T3, 48 h, Table 1; MTT assay after 48 h treatment
Method: To consider a molecule as a candidate compound in cancer drug therapy, the test compound must have specific cytotoxicity towards the cancer cells without affecting normal cell growth. Therefore, all active compounds were assessed for toxicity in non-cancer cell-lines: mouse fibroblast cell line (NIH3T3) and monkey kidney epithelial cells (Vero). […] Therefore, based on safety index ([…]), 5d [Centans; based on IUPAC name prefixed with Central Drug Research Institute's signature (Cent)] was selected as a lead compound.

[2] = test system: MDA-MB231; test: MTT assay in MDA-MB-231 breast tumor cells; type: cell-based; settings: 10 point dose response
[3] = test system: HL60; test: MTT cytotoxicity assay in HL-60 cells; type: cell-based; settings: Homo sapiens, HL-60, 48 h, Table 1; MTT assay after 48 h treatment
[4] = test system: Ishikawa; test: MTT assay in Ishikawa endometrial adenocarcinoma cells; type: cell-based; settings: Table 6, 48 h, 10 point dose response
[5] = test system: DU-145; test: MTT assay in DU-145 prostate tumor cells; type: cell-based; settings: 10 point dose response
[6] = test system: K562; test: MTT cytotoxicity assay in K562 cells; type: cell-based; settings: Homo sapiens, K562, 48 h, Table 1; MTT assay after 48 h treatment
[7] = test system: MCF-7; test: MTT assay in MCF-7 breast tumor cells; type: cell-based; settings: 10 point dose response
[8] = Homo sapiens, MDA-MB-231, Table 6, 48 h
[9] = Homo sapiens, DU-145, Table 6, 48 h
[10] = Homo sapiens, MCF7, Table 6, 48 h

CSc1ccc(/C(=N/OCCN2CCCC2)c2cccc3ccccc23)cc1 [Compound 5b, (4-(methylthio)phenyl)(naphthalen-1-yl)methanone O-2-(pyrrolidin-1-yl)ethyl oxime oxalate]
IC50 [1]: 20 µM | IC50 [2, 8]: 5.01 µM | IC50 [3]: 19 µM | IC50 ([4]; Homo sapiens, Ishikawa): 6 µM | IC50 [5, 9]: 9.5 µM | IC50 [6]: 25 µM | IC50 [7, 10]: 6.6 µM

CSc1ccc(/C(=N/OCCCN2CCCCC2)c2cccc3ccccc23)cc1 [Compound 7a, (4-(methylthio)phenyl)(naphthalen-1-yl)methanone O-3-(piperidin-1-yl)propyl oxime oxalate]
IC50 [1]: > 50 µM | IC50 [2, 8]: 20 µM | IC50 [3]: > 50 µM | IC50 ([4]; Homo sapiens, Ishikawa): 12 µM | IC50 [5, 9]: 15 µM | IC50 [6]: > 20 µM | IC50 [7, 10]: 5 µM

CSc1ccc(/C(=N/OCCN(C)C)c2cccc3ccccc23)cc1 (as salt: oxalate) [Compound 5c, (4-(methylthio)phenyl)(naphthalen-1-yl)methanone O-2-(dimethylamino)ethyl oxime oxalate]
melting point: 105 °C

CCN(CC)CCO/N=C(/c1ccc(OC)cc1)c1cccc2ccccc12 (as salt: oxalate) [Compound 6d, (4-methoxyphenyl)(naphthalen-1-yl)methanone O-2-(diethylamino)ethyl oxime oxalate]
melting point: 137 °C

CSc1ccc(/C(=N/OCCN2CCCC2)c2cccc3ccccc23)cc1 (as salt: oxalate) [Compound 5b, (4-(methylthio)phenyl)(naphthalen-1-yl)methanone O-2-(pyrrolidin-1-yl)ethyl oxime oxalate]
melting point: 153 °C

COc1ccc(/C(=N/OC(C)CN(C)C)c2cccc3ccccc23)cc1 (centres unmarked) (as salt: oxalate) [Compound 6f, (4-methoxyphenyl)(naphthalen-1-yl)methanone O-1-(dimethylamino)propan-2-yl oxime oxalate]
melting point: 105 °C

COc1ccc(/C(=N/OCCN2CCCC2)c2cccc3ccccc23)cc1 (as salt: oxalate) [Compound 6b, (4-methoxyphenyl)(naphthalen-1-yl)methanone O-2-(pyrrolidin-1-yl)ethyl oxime oxalate]
melting point: 158 °C

CSc1ccc(/C(=N/OCCCCN2CCCC2)c2cccc3ccccc23)cc1 [Compound 8b, (4-(methylthio)phenyl)(naphthalen-1-yl)methanone O-4-(pyrrolidin-1-yl)butyl oxime]
IC50 [1]: > 50 µM | IC50 [2, 8]: > 50 µM | IC50 [3]: > 50 µM | IC50 ([4]; Homo sapiens, Ishikawa): > 50 µM | IC50 [5, 9]: > 50 µM | IC50 [6]: > 50 µM | IC50 [7, 10]: > 50 µM

COc1ccc(/C(=N/OCCCN(C)C)c2cccc3ccccc23)cc1 (as salt: oxalate) [Compound 6i, (4-methoxyphenyl)(naphthalen-1-yl)methanone O-3-(dimethylamino)propyl oxime oxalate]
melting point: 155 °C

COc1ccc(/C(=N/OCCN2CCCCC2)c2cccc3ccccc23)cc1 [Compound 6a, (4-methoxyphenyl)(naphthalen-1-yl)methanone O-2-(piperidin-1-yl)ethyl oxime oxalate]
IC50 [1]: > 50 µM | IC50 [2, 8]: > 50 µM | IC50 [3]: > 50 µM | IC50 ([4]; Homo sapiens, Ishikawa): > 50 µM | IC50 [5, 9]: > 50 µM | IC50 [6]: > 50 µM | IC50 [7, 10]: 18 µM

CSc1ccc(/C(=N/OCCCN2CCC(C)CC2)c2cccc3ccccc23)cc1 (as salt: oxalate) [Compound 7c, (4-(methylthio)phenyl)(naphthalen-1-yl)methanone O-3-(4-methylpiperidin-1-yl)propyl oxime oxalate]
melting point: 145 °C

COc1ccc(/C(=N/OCCN(C(C)C)C(C)C)c2cccc3ccccc23)cc1 (as salt: oxalate) [Compound 6e, (4-methoxyphenyl)(naphthalen-1-yl)methanone O-2-(diisopropylamino)ethyl oxime oxalate]
melting point: 130 °C

COc1ccc(/C(=N/O)c2cccc3ccccc23)cc1 [Compound 4b, (4-methoxyphenyl)(naphthalen-1-yl)methanone oxime]
melting point: 132 °C | IC50 [1]: > 50 µM | IC50 [3]: > 50 µM | IC50 [6]: > 50 µM

CSc1ccc(/C(=N/OC(C)CN(C)C)c2cccc3ccccc23)cc1 (centres unmarked) (as salt: oxalate) [Compound 5g, (4-(methylthio)phenyl)(naphthalen-1-yl)methanone O-1-(dimethylamino)propan-2-yl oxime oxalate]
melting point: 101 °C

COc1ccc(/C(=N/OCCN2CCCC2)c2cccc3ccccc23)cc1 [Compound 6b, (4-methoxyphenyl)(naphthalen-1-yl)methanone O-2-(pyrrolidin-1-yl)ethyl oxime oxalate]
IC50 [1]: > 50 µM | IC50 [2, 8]: > 50 µM | IC50 [3]: > 50 µM | IC50 ([4]; Homo sapiens, Ishikawa): > 50 µM | IC50 [5, 9]: > 50 µM | IC50 [6]: > 50 µM | IC50 [7, 10]: 25 µM

CSc1ccc(/C(=N/OCCN2CCCCCC2)c2cccc3ccccc23)cc1 (as salt: oxalate) [Compound 5h, (4-(methylthio)phenyl)(naphthalen-1-yl)methanone O-2-(azepan-1-yl)ethyl oxime oxalate]
melting point: 145 °C

COc1ccc(/C(=N/OCCCN(C)C)c2cccc3ccccc23)cc1 [Compound 6i, (4-methoxyphenyl)(naphthalen-1-yl)methanone O-3-(dimethylamino)propyl oxime oxalate]
IC50 [1]: > 50 µM | IC50 [2, 8]: > 50 µM | IC50 [3]: > 50 µM | IC50 ([4]; Homo sapiens, Ishikawa): > 50 µM | IC50 [5, 9]: > 50 µM | IC50 [6]: > 50 µM | IC50 [7, 10]: 20.5 µM

CSc1ccc(/C(=N/OCCN2CCCCC2)c2cccc3ccccc23)cc1 (as salt: oxalate) [Compound 5a, (4-(methylthio)phenyl)(naphthalen-1-yl)methanone O-2-(piperidin-1-yl)ethyl oxime oxalate]
melting point: 155 °C

CSc1ccc(/C(=N/OCCCCN2CCCCC2)c2cccc3ccccc23)cc1 [Compound 8a, (4-(methylthio)phenyl)(naphthalen-1-yl)methanone O-4-(piperidin-1-yl)butyl oxime]
IC50 [1]: 20 µM | IC50 [2, 8]: 18 µM | IC50 [3]: 16 µM | IC50 ([4]; Homo sapiens, Ishikawa): 18 µM | IC50 [5, 9]: 7.5 µM | IC50 [6]: 6.34 µM | IC50 [7, 10]: 8 µM

COc1ccc(/C(=N/OCCN(C(C)C)C(C)C)c2cccc3ccccc23)cc1 [Compound 6e, (4-methoxyphenyl)(naphthalen-1-yl)methanone O-2-(diisopropylamino)ethyl oxime oxalate]
IC50 [1]: > 50 µM | IC50 [2, 8]: > 50 µM | IC50 [3]: > 50 µM | IC50 ([4]; Homo sapiens, Ishikawa): > 50 µM | IC50 [5, 9]: > 50 µM | IC50 [6]: > 50 µM | IC50 [7, 10]: 23 µM

CSc1ccc(/C(=N/OCCCN2CCCCC2)c2cccc3ccccc23)cc1 (as salt: oxalate) [Compound 7a, (4-(methylthio)phenyl)(naphthalen-1-yl)methanone O-3-(piperidin-1-yl)propyl oxime oxalate]
melting point: 137 °C

COc1ccc(/C(=N/OCCN2CCCCCC2)c2cccc3ccccc23)cc1 (as salt: oxalate) [Compound 6g, (4-methoxyphenyl)(naphthalen-1-yl)methanone O-2-(azepan-1-yl)ethyl oxime oxalate]
melting point: 122 °C

CCN(CC)CCO/N=C(/c1ccc(OC)cc1)c1cccc2ccccc12 [Compound 6d, (4-methoxyphenyl)(naphthalen-1-yl)methanone O-2-(diethylamino)ethyl oxime oxalate]
IC50 [1]: > 50 µM | IC50 [2, 8]: > 50 µM | IC50 [3]: > 50 µM | IC50 ([4]; Homo sapiens, Ishikawa): > 50 µM | IC50 [5, 9]: > 50 µM | IC50 [6]: > 50 µM | IC50 [7, 10]: 20 µM

CSc1ccc(/C(=N/OCCN(C)C)c2cccc3ccccc23)cc1 [Compound 5c, (4-(methylthio)phenyl)(naphthalen-1-yl)methanone O-2-(dimethylamino)ethyl oxime oxalate]
IC50 [1]: > 50 µM | IC50 [2, 8]: 12.8 µM | IC50 [3]: > 50 µM | IC50 ([4]; Homo sapiens, Ishikawa): 9 µM | IC50 [5, 9]: 15 µM | IC50 [6]: > 50 µM | IC50 [7, 10]: 14 µM

COc1ccc(/C(=N/OCCN2CCCCC2)c2cccc3ccccc23)cc1 (as salt: oxalate) [Compound 6a, (4-methoxyphenyl)(naphthalen-1-yl)methanone O-2-(piperidin-1-yl)ethyl oxime oxalate]
melting point: 171 °C

COc1ccc(/C(=N/OCCN(C)C)c2cccc3ccccc23)cc1 [Compound 6c, (4-methoxyphenyl)(naphthalen-1-yl)methanone O-2-(dimethylamino)ethyl oxime oxalate]
IC50 [1]: > 50 µM | IC50 [2, 8]: > 50 µM | IC50 [3]: > 50 µM | IC50 ([4]; Homo sapiens, Ishikawa): > 50 µM | IC50 [5, 9]: > 50 µM | IC50 [6]: > 50 µM | IC50 [7, 10]: 15 µM

CSc1ccc(/C(=N/OCCCN(C)C)c2cccc3ccccc23)cc1 (as salt: oxalate) [Compound 5m, (4-(methylthio)phenyl)(naphthalen-1-yl)methanone O-3-(dimethylamino)propyl oxime oxalate]
melting point: 110 °C

4-hydroxy-tamoxifen [OH-TAM, reference compound]
IC50 ([2]; Table 6, 48 h): 8 µM | IC50 [4]: 20 µM | IC50 ([5]; Table 6, 48 h): 10 µM | IC50 ([7]; Table 6, 48 h): 8.8 µM

COc1ccc(/C(=N/OCCN(C)C)c2cccc3ccccc23)cc1 (as salt: oxalate) [Compound 6c, (4-methoxyphenyl)(naphthalen-1-yl)methanone O-2-(dimethylamino)ethyl oxime oxalate]
melting point: 141 °C
